Results from US9617517B2, “Small chemical compound which promotes induction of differentiation of stem cells into insulin-producing cells and method for inducing differentiation of stem cells into insulin-producing cells using said small chemical compound” (NATIONAL UNIVERSITY CORPORATION KUMAMOTO UNIVERSITY, priority 2011, dated 2017).

What was measured:
VMAT2KD ES cells = experiment: c-peptide amount of differentiated VMAT2KD ES cells (ELISA); assay type: cell-based, mouse; conditions: dBu-cAMP 0.6 μM (FIG. 12A)
Procedure: In the Vmat2-knockdown and Drd2-knockdown assays, Expression Arrest non-silencing control shRNA (Open Biosystems, #RHS4080), Vmat2 hRNA (Open Biosystems, #RMM3981-97058457 and #RMM3981-97058458) or Drd2 hRNA (Open Biosystems, #RMM3981-9594258) lentiviral vectors were used. For virus preparation, HEK293-FT cells (Invitrogen) were seeded on a plate medium the day before transfection. After overnight culture, the cells were transfected with lentiviral vectors and ViraPower™ Lentiviral Packaging Mix (Invitrogen) using FuGENE6 Transfection Reagent (Roche) according to the manufacturer's protocol. Cells were incubated in the ES maintenance medium for 24 hours, and viral supernatants were collected. Then, SK7 cells were infected with the viral supernatants. After incubation for 24 hours, the virus-containing medium was replaced with fresh ES maintenance medium. Further 24 hours later, the infected cells were selected using […] puromycin. The surviving cells were cloned as a knockdown-cell lines.
Differentiated ES cells were pre-incubated for 4 hours in low glucose (5.5 mM) Dulbecco's modified minimal essential medium with 1% fetal bovine serum. […] Insulin secretion into the culture medium and insulin content of the cell lysate were measured using the mouse c-peptide ELISA kit (Shibayagi. Co. Ltd., Japan). […]

Ngn3/GFP mouse ES cells = experiment: Ngn3 positive cell inducing rate; assay type: cell-based; conditions: TBZ 2.5 μM or dBu-cAMP 0.6 μM; addition days 9-11, 11-13 or 9-13; day 13 (FIG. 16C)
Procedure: The influence exerted on the Ngn3 positive cell inducing rate by addition of TBZ (2.5 μM) or dBu-cAMP (0.6 μM) was confirmed. FIG. 16A is a view schematically showing the addition periods of TBZ or dBu-cAMP, and the addition periods are a) on days 9 to 11 of culture, b) on days 11 to 13 of culture, and c) on days 9 to 13 of culture.
First, the compound was not added or TBZ was added on days 9 to 13 of culture (period c), and visible light photographs and fluorescence of Ngn3/GFP mouse ES cells were observed on day 13 of culture. The left one is a visible light photograph and the right one is fluorescence.
Next, the compound was not added, or TBZ or dBu-cAMP was added under the above-described conditions a), b) and c), and the proportion of GFP positive cells on day 13 of culture was checked. The ratios of the proportions of GFP positive cells and Ngn3 positive cells when the ratio in the case of no addition is 1 are shown in FIG. 16C. […] The order of intensity of the effect was a), c), b) in descending order.

differentiated ES cells = experiment: Real time PCR of gene expression in differentiated ES cells; assay type: cell-based, mouse; conditions: TBZ 2.5 μM

Which “c-peptide amount of differentiated cells” value (VMAT2KD ES cells) does the source give for `CCCC(=O)Nc1ncnc2c1ncn2[C@@H]1O[C@@H]2COP(=O)(O)O[C@H]2[C@H]1OC(=O)CCC` [Dibutyryl- cAMP, dibutyrate-cAMP] here?
The value was “large increase in the c-peptide amount”.

And the “number of GFP positive cells” value (Ngn3/GFP mouse ES cells)?
Its value is “increased in all conditions”.

And the “expression of Abcc8” value (differentiated ES cells; dBu-cAMP 0.6 μM (FIG. 13))?
Its value is “increased remarkably”.

What about the “expression of Glut2” value (differentiated ES cells; dBu-cAMP 0.6 μM (FIG. 13)) of the same compound?
Its value is “increased remarkably”.

What about the “expression of MafA” value (differentiated ES cells; dBu-cAMP 0.6 μM (FIG. 13)) of the same compound?
The value was “increased slightly”.

And the “expression of Stx1” value (differentiated ES cells; dBu-cAMP 0.6 μM (FIG. 13))?
The value was “increased slightly”.

What about the “expression level of MafA, time course” value (differentiated ES cells; dBu-cAMP 0.6 μM from day 11, after day 13 (FIG. 15)) of the same compound?
Its value is “promoted”.

What about the “expression level of Ngn3” value (differentiated ES cells; dBu-cAMP 0.6 μM from day 11, day 13 and day 15 (FIG. 15)) of the same compound?
The value was “increased also”.

What about the “expression level of Insulin1” value (differentiated ES cells; dBu-cAMP 0.6 μM from day 11, single after day 13, both after day 15 (FIG. 15)) of the same compound?
The value was “promoted”.
